Laboratory results: PubChem BioAssay (NCI)
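Cells were grown in 96-well plates and exposed to each compound for 48 hours at five concentrations; endpoints were interpolated linearly between bracketing concentrations, or set to the highest concentration if not reached. TGI marks complete inhibition of growth.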

Experiments:
Test in all cases: NCI-60 cell line screen, 48 h
EKVX NSCLC = test system: EKVX NSCLC
COLO 205 colon = test system: COLO 205 colon
SF-295 CNS = test system: SF-295 CNS
OVCAR-5 ovarian = test system: OVCAR-5 ovarian
SK-MEL-5 melanoma = test system: SK-MEL-5 melanoma
HS 578T breast = test system: HS 578T breast
786-0 renal = test system: 786-0 renal
MDA-MB-435 = test system: MDA-MB-435
HCC-2998 colon = test system: HCC-2998 colon
SK-MEL-28 melanoma = test system: SK-MEL-28 melanoma
SK-OV-3 ovarian = test system: SK-OV-3 ovarian
OVCAR-4 ovarian = test system: OVCAR-4 ovarian
SK-MEL-2 melanoma = test system: SK-MEL-2 melanoma
M14 melanoma = test system: M14 melanoma
SF-539 CNS = test system: SF-539 CNS
MALME-3M melanoma = test system: MALME-3M melanoma
NCI/ADR-RES ovarian = test system: NCI/ADR-RES ovarian
UO-31 renal = test system: UO-31 renal
HL-60(TB) leukemia = test system: HL-60(TB) leukemia

Structure (SMILES) | TGI (EKVX NSCLC) [µM] | TGI (COLO 205 colon) [µM] | TGI (SF-295 CNS) [µM] | TGI (OVCAR-5 ovarian) [µM] | TGI (SK-MEL-5 melanoma) [µM] | TGI (HS 578T breast) [µM] | TGI (786-0 renal) [µM] | TGI (MDA-MB-435) [µM] | TGI (HCC-2998 colon) [µM] | TGI (SK-MEL-28 melanoma) [µM] | TGI (SK-OV-3 ovarian) [µM] | TGI (OVCAR-4 ovarian) [µM] | TGI (SK-MEL-2 melanoma) [µM] | TGI (M14 melanoma) [µM] | TGI (SF-539 CNS) [µM] | TGI (MALME-3M melanoma) [µM] | TGI (NCI/ADR-RES ovarian) [µM] | TGI (UO-31 renal) [µM] | TGI (HL-60(TB) leukemia) [µM]
COc1ccc(Cc2c(N)[nH]c(=O)n(C)c2=O)cc1 | > 100 | > 100 | > 100 | > 100 | > 100 | > 100 | > 100 | > 100 | > 100 | > 100 | > 100 | > 100 | > 100 | > 100 | > 100 | > 100 | > 100 | > 100 | 
c1ccc(-c2cs[s+]c2)cc1 | > 100 | > 100 | > 100 | > 100 | > 100 | > 100 | > 100 | > 100 | > 100 | > 100 | > 100 | > 100 |  | > 100 |  | > 100 | > 100 | > 100 | > 100
Cc1nn(C(=O)c2ccncc2)c2c1C(c1ccc(Cl)cc1)SC(N)=N2 (stereo not drawn) | > 10 | > 10 | > 10 | > 10 | > 10 | > 10 | > 10 | > 10 | > 10 | > 10 |  | > 10 | > 10 | > 10 | > 10 | > 10 | > 10 |  | > 10
C=C1CCC2CC1[C@@H](C(=O)c1c[nH]c3ccccc13)NC2(C)C (stereo partly drawn) | > 37.5 | > 37.5 | > 37.5 | > 37.5 | > 37.5 | > 37.5 | > 37.5 | > 37.5 | 32.4 | > 37.5 |  | > 37.5 | > 37.5 |  | > 37.5 | > 37.5 | > 37.5 | > 37.5 | > 37.5
CC(=O)CCC(=O)C(=[N+]=[N-])S(=O)(=O)c1ccccc1 | > 100 | > 100 | > 100 | > 100 | > 100 | > 100 | > 100 | > 100 | > 100 | > 100 |  |  | > 100 | > 100 | > 100 | > 100 | > 100 | > 100 | > 100
Cc1cc(C)nc(NC(=S)Nc2ccccc2Cl)c1 | > 100 | > 100 | > 100 | > 100 | > 100 | > 100 | > 100 | > 100 |  | > 100 | > 100 | > 100 | > 100 | > 100 | > 100 | > 100 | > 100 | > 100 | > 100
CCCc1c(O)c(=O)c2c(OC)cc(OC)c3c4c(OC)cc(OC)c5c(=O)c(O)c(CCC)c(c1c23)c54 | 6.66 | 8.94 | 12.2 | 19.4 | 1.91 | 72.2 | 9.59 | 10.4 | 17.1 | 19.1 | 2.96 | 14.1 | 8.71 | 8.65 | 11.3 |  | 3.55 | 3.35 | 4.64
Cc1nc(-n2[nH]c(C)c(CCO)c2=O)[nH]c(=O)c1CCO | > 100 | > 100 | > 100 |  | > 100 | > 100 | > 100 | > 100 | > 100 | > 100 | > 100 | > 100 |  | > 100 | > 100 |  | > 100 | > 100 | > 100
O=C(N/N=C/c1ccc([N+](=O)[O-])cc1)c1cccc2nc3ccccc3nc12 | > 100 | > 100 | > 100 | > 100 | > 100 | 73.6 | > 100 | > 100 |  | > 100 | > 100 | > 100 | > 100 | > 100 | > 65.6 | > 100 | > 100 | > 100 | > 100
c1cc(CSP234N5CCN2CCN3CCN4CC5)ccc1CSP123N4CCN1CCN2CCN3CC4 | > 100 | > 100 | > 100 | > 100 | > 100 | > 100 | > 100 | > 100 | > 100 | > 100 |  | > 100 | > 100 | > 100 | > 100 |  | > 100 | > 100 | 79.8
